Measurements from article PMC11286609, “In vitro and in vivo analyses of eFAP: a novel FAP-targeting small molecule for radionuclide theranostics and other oncological interventions” (EJNMMI Radiopharmacy and Chemistry, 2024).

Biological target: T1, huFAP (HT1080-huFAP cells) (Homo sapiens, UniProt Q12884)
T1 construct: expressed in transfected cells; host or cells: HT1080 (human sarcoma), stably transduced; provided by Prof; Dr. Uwe Haberkorn, University of Heidelberg
T1 sequence (Q12884 1-760): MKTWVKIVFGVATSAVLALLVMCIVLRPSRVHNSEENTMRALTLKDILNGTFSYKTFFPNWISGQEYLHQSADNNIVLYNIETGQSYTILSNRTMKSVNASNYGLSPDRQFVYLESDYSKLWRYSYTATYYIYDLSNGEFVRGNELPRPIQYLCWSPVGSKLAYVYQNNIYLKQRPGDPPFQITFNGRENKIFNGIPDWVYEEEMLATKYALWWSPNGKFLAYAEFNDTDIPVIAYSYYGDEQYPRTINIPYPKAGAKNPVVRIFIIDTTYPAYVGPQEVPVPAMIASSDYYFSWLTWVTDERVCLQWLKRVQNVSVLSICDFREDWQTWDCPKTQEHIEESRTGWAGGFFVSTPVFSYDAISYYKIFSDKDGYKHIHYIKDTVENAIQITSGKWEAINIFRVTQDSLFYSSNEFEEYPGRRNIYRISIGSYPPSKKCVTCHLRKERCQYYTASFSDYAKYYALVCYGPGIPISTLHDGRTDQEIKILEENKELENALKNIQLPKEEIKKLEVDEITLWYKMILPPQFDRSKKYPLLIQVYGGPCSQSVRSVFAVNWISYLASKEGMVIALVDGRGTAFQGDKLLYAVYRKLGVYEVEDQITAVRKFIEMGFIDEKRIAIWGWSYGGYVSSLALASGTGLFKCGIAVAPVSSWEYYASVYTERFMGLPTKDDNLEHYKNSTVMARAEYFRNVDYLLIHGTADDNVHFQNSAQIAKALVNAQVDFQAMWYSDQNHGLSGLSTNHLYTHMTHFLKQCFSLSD
Test: [^111In]In-FAPI-46 displacement assay on FAP-expressing cells
Type: binding
Conditions: 10^-9 M [^111In]In-FAPI-46, 45 min, n = 3, picture: nM ± 95% CI
Description: Cell experiments were performed with the human sarcoma HT1080 cell line, stably transduced with human FAP (HT1080-huFAP) which were kindly provided by Prof. Dr. Uwe Haberkorn from the University of Heidelberg. The wild type HT1080 (ATTC), hereafter HT080-WT, was used as a negative control. Additionally, the pancreatic stellate cells PS-1, obtained from Queen Mary University, were used as an endogenously FAP expressing cell line. HT1080-huFAP and HT1080-WT cells were cultured in DMEM Glutamax© (Gibco; Breda, The Netherlands) and the PS-1 cells were cultured in RPMI (Gibco). Both media were supplemented with 10% FBS (Gibco), 100 UI/mL penicillin, and 100 µg/mL streptomycin (Merck Life Science NV; Amsterdam, The Netherlands). All cell lines were regularly passaged at 80% confluence and cultured at 37 °C, 5% CO2.
In vitro displacement studies of eFAP-6 and eFAP-7, as well as specificity and uptake assays, were performed using HT0180-huFAP cells. One day prior to the assay 100,000 cells were seeded in a 12-well plate in triplicate. […] For the uptake assay, the cells were incubated with 1 nM [^111In]In-eFAP-6 or [^111In]In-FAPI-46 for different time points (5–120 min) in the presence and absence of 1 mM UAMC-1110 to determine the specificity of^111 radiotracer binding. In both assays, the cells were washed twice with PBS after incubation and were subsequently lysed using 1 M NaOH for 20 min. The cell lysates were collected and radioactivity was measured in a γ-counter (PerkinElmer), simultaneously with 100 µL of the radioactive incubation medium as a standard. […] Uptake was expressed as percentage added activity per 200,000 cells (% AA/200,000 cells), and specific uptake was corrected by subtracting the uptake measured in the block wells.
All statistical analyses were performed with GraphPad Prism version 9.0 (San Diego, California USA). All IC50 values were determined using a non-linear regression Log(inhibitor) vs. response analysis with variable slope (four parameters). […]

IC50 | Compound
0.62 ± 0.26 nM | N#C[C@@H]1CC(F)(F)CN1C(=O)CNC(=O)c1ccnc2c(OCCCNC(=O)CN3CCN(CC(=O)O)CCN(CC(=O)O)CCN(CC(=O)O)CC3)cccc12 [eFAP-6, (S)-2,2',2''-(10-(2-((3-((4-((2-(2-cyano-4,4-difluoropyrrolidin-1-yl)-2-oxoethyl)carbamoyl)quinolin-8-yl)oxy)propyl)amino)-2-oxoethyl)-1,4,7,10-tetraazacyclododecane-1,4,7-triyl)triacetic acid]
1 ± 0.36 nM | CN1/C(=C/C=C/C=C/C2=[N+](CCCCCC(=O)NCCCOc3cccc4c(C(=O)NCC(=O)N5CC(F)(F)C[C@H]5C#N)ccnc34)c3ccc(S(=O)(=O)[O-])cc3C2(C)C)C(C)(C)c2cc(S(=O)(=O)O)ccc21 [eFAP-7, 1-(6-((3-((4-((2-((S)-2-cyano-4,4-difluoropyrrolidin-1-yl)-2-oxoethyl)carbamoyl)quinolin-8-yl)oxy)propyl)amino)-6-oxohexyl)-3,3-dimethyl-5-sulfo-2-((1E,3E)-5-((E)-1,3,3-trimethyl-5-sulfoindolin-2-ylidene)penta-1,3-dien-1-yl)-3H-indol-1-ium]
1.42 ± 0.29 nM | CN(CCCN1CCN(C(=O)CN2CCN(CC(=O)O)CCN(CC(=O)O)CCN(CC(=O)O)CC2)CC1)c1ccc2nccc(C(=O)NCC(=O)N3CC(F)(F)C[C@H]3C#N)c2c1 [FAPI-46, reference compound]
